Measured values taken from PMC6359803, “Inhibition of inflammatory response in human keratinocytes by magnetic nanoparticles functionalized with PBP10 peptide derived from the PIP2-binding site of human plasma gelsolin” (Journal of Nanobiotechnology, 2019).
Read-outs that look alike come from different tables or passages of the source. Ends that are not written are not given here. Peptide text beside a SMILES is read from it. * marks the point of attachment. RhodamineB = CCN(CC)c1ccc2c(-c3ccccc3C(=O)*)c3ccc(=[N+](CC)CC)cc-3oc2c1

Experiments:
HaCaT cells [1] = experiment: ROS formation (DFCH-DA fluorescence); assay type: cell-based, human; settings: 1 µg/mL LPS-stimulated HaCaT, 10 µg/mL agent, 24 h
Procedure: The generation of reactive oxygen species from stimulated HaCaT cells was measured using 2′,7′-dichlorofluorescein diacetate (DFCH-DA) as the fluorescent probe. For this purpose, 5 × 10^4 of HaCaT cells, cultured until ~ 85% confluence and incubated simultaneously with peptides or their magnetic derivatives at concentrations of 2, 5 and 10 µg/mL and with 1 µg/mL LPS/LTA or heat-inactivated bacteria for 24 h. Next, cells were washed twice with PBS, and DFCH-DA in PBS at the concentration of 20 µM was added. Fluorescence was measured for 90 min immediately after the addition of the dye at excitation/emission wavelengths of 488/535 nm.

E. coli RS218 = experiment: Killing assay (CFU counting); assay type: cell-based, Escherichia coli; settings: E. coli RS218, 1 h, doses 2-10 µg/mL, dose-dependent
Procedure: (§1) To assess the bactericidal activity of PBP10-derived peptides and PBP10-containing nanosystems against E. coli and S. aureus bacterial strains, a killing assay based on counting colony forming units (CFU) was performed. For this purpose, E. coli and S. aureus strains were grown to mid-log phase at 37 °C, re-suspended in PBS, brought to 10^8 CFU/ml (which corresponds to 0.5 OD at a wavelength 600 nm) and diluted 1:100 to obtain sample containing approx. 10^6 CFU/mL. Bacteria were then added to PBS containing different concentrations of PBP10, RhB-PBP10 and RhB-PBP10-Cys and their nanosystems at doses of 2, 5 and 10 µg/mL. After 1 h of incubation at 37 °C, the plates were transferred to ice and suspensions were diluted 10- to 1000-fold in PBS. Then, 10 μL aliquots were spotted on agar plates for overnight culture at 37 °C in order to determine CFUs.

S. aureus A1 = experiment: Killing assay (CFU counting); assay type: cell-based, Staphylococcus aureus; settings: S. aureus A1, 1 h, doses 2-10 µg/mL, dose-dependent
Procedure: as §1

HaCaT cells [2] = experiment: Nitric oxide assay (nitrite, Griess reagent); assay type: cell-based, human; settings: 1 µg/mL LTA-stimulated HaCaT, 10 µg/mL agent, 24 h
Procedure: The nitric oxide assay was performed as described previously and the quantity of nitrite in the culture medium was measured as an indicator of NO production. Amounts of nitrite, a stable metabolite of NO, were measured using the Griess reagent (1% sulfanilamide and 0.1% naphthylethylenediamine dihydrochloride in 2.5% phosphoric acid). Briefly, 5 × 10^4 HaCaT cells were seeded in transparent 96-well plates and cultured until 85% confluence was reached. After that, cells were washed with PBS, and agents at final concentrations of 2, 5 and 10 µg/mL were added to each well. Simultaneously, keratinocytes were stimulated with 1 µg/mL LPS (E. coli 026:B6), 1 µg/mL LTA (from Staphylococcus aureus) or heat-inactivated suspensions of E. coli or S. aureus (~ 10^6 CFU/mL) and incubated in serum-free medium for 24 h. Next, 50 µL of cell culture medium was mixed with 50 µL of Griess reagent, incubated at room temperature for 15 min, and the absorbance at 540 nm was measured in a microplate reader. Fresh culture medium was used as a blank in every experiment.

[3] = MTT viability / metabolic activity assay; assay type: cell-based, human; settings: human
Procedure: (§2) The viability and metabolic activity of cells were measured using a microculture tetrazolium test (MTT; 3-(4,5-dimethylthiazol-2-yl)-2,5-diphenyltetrazolium bromide) as described previously. HaCaT cells were seeded at a density of 5 × 10^4 cells/well in transparent 96-well plates and cultured until ~ 85% confluence; after that medium was replaced with serum-free medium and cells were serum starved for another 12 h. To determine the non-toxic concentrations, the peptides and their magnetic derivatives in concentrations ranging from 1 to 50 µg/mL were added to each well and incubated for 24 h at 37 °C under 5% CO2. The optical density at 490 nm was assessed after 2 h incubation of plates with MTT solution (5 mg/mL) and the addition of formazan salt in dimethyl sulfoxide (DMSO). The absorbance value obtained in cultures of control cells (with solvents alone) was taken as 100%. The average of all the experiments is shown as cell viability percentage in comparison to the control.

[4] = Fluorescence of unbound peptide after magnetic separation; assay type: physicochemical; settings: fluorescence relative to 1 mg/mL free peptide
Procedure: PBP10-containing nanosystems were obtained by non-covalent bonding including electrostatic interactions or chemisorption of thiol groups to the gold surface. Nanoparticles (MNP@NH2 or MNP@Au) were dispersed in PBS to obtain solutions of 10 mg/mL concentration. Then nanoparticles were diluted to the concentration of 1 mg/mL and were mixed with the appropriate amount (1:1 volume ratio) of PBP peptide or PBP modified by cysteine and rhodamine (1 mg/mL solutions in PBS buffer). Prepared solutions were incubated for 2 days (nucleation) and used for further investigations. In order to avoid the loss of agents during the preparation process, no further purification of nanosystems was performed. To evaluate the efficiency of peptide attachment, fluorescence of unbound PBP10 peptides in solutions after magnetic separation of nanosystems was measured.

A549 cells = experiment: Cell stiffness by atomic force microscopy (AFM) indentation; assay type: cell-based, human; settings: 1 µg/mL LPS 24 h, agent 5 µg/mL
Procedure: The stiffness of cells after 24 h stimulation with 1 µg/mL LPS was measured by indentation using atomic force microscopy (Nanowizard 4 Bioscience AFM, JPK Instruments, Germany). Adenocarcinomic human alveolar basal epithelial cells (A549 ATCC® CCL-185™) were cultured in high-glucose DMEM supplemented with 10% FBS at 37 °C with 5% CO2, placed on Ø 35 mm Petri dishes and allowed to attach and spread for 24 h before simultaneous stimulation with 1 µg/mL LPS (E. coli 026:B6) and treatment with 5 µg/mL of PBP10 or PBP10-based nanosystems. Immediately before the experiment, cells were placed in a CO2-independent buffer (Thermo Fisher Scientific, USA) to prevent changes in pH of the cellular environment during analysis. Elasticity measurements were taken with AFM working in force spectroscopy mode in liquid conditions, and cantilevers (ORC8, Bruker) with a spring constant of 0.1 N/m were used. From each tested cell, up to 64 force-indentation curves were collected in a grid of 8 × 8 pixels corresponding to a scan area of 10 × 10 µm with a maximal force of 2 nN. For indentation measurements, more than 1100 force-distance curves were recorded for each group from at least ten different cells. To determine the apparent Young’s modulus of different cells, force-indentation curves were fit to the Hertz contact model.

HaCaT cells [5] = experiment: IL-8 release (ELISA); assay type: cell-based, human; settings: 24 h
Procedure: In order to assess release of interleukin-8 (IL-8) from stimulated keratinocytes, 5 × 10^4 HaCaT cells were treated with agents at concentrations of 2, 5 and 10 µg/mL and stimulated with 1 µg/mL LPS/LTA. The medium from LPS/LTA-treated cells was harvested after 24 h of incubation and the level of IL-8 was evaluated using an IL-8 Human ELISA Kit (Thermo Fisher Scientific).

HaCaT cells [6] = experiment: MTT viability / metabolic activity assay; assay type: cell-based, human; settings: 24 h
Procedure: as §2

Question: What does the source list for `CCN(CC)c1ccc2c(-c3ccccc3C(=O)N[C@@H](CCC(N)=O)C(=O)N[C@@H](CCCNC(=N)N)C(=O)N[C@@H](CC(C)C)C(=O)N[C@@H](Cc3ccccc3)C(=O)N[C@@H](CCC(N)=O)C(=O)N[C@H](C(=O)N[C@@H](CCCCN)C(=O)NCC(=O)N[C@@H](CCCNC(=N)N)C(=O)N[C@@H](CCCNC(=N)N)C(=O)O)C(C)C)c3ccc(=[N+](CC)CC)cc-3oc2c1` [RhB-PBP10, rhodamine B-QRLFQVKGRR] (RhodamineB-QRLFQVKGRR-OH; N-terminus and C-terminus assumed)?
Answer: ROS production (% of untreated stimulated control) (HaCaT cells [1]): 30.33 ± 3.31%; decrease of bacterial viability (E. coli RS218): more than 95%; decrease of bacterial viability (S. aureus A1): more than 95%; NO production (% of untreated stimulated control) (HaCaT cells [2]): 63.16 ± 14.01%

Question: For `CCN(CC)c1ccc2c(-c3ccccc3C(=O)N[C@@H](CCC(N)=O)C(=O)N[C@@H](CCCNC(=N)N)C(=O)N[C@@H](CC(C)C)C(=O)N[C@@H](Cc3ccccc3)C(=O)N[C@@H](CCC(N)=O)C(=O)N[C@H](C(=O)N[C@@H](CCCCN)C(=O)NCC(=O)N[C@@H](CCCNC(=N)N)C(=O)N[C@@H](CCCNC(=N)N)C(=O)N[C@@H](CS)C(=O)O)C(C)C)c3ccc(=[N+](CC)CC)cc-3oc2c1` [RhB-PBP10-Cys] (RhodamineB-QRLFQVKGRRC-OH; N-terminus and C-terminus assumed), which “decrease of bacterial viability” value (E. coli RS218) is on record?
Answer: more than 95%

Question: What about the viability at 24 h, 10 µg/mL ([3]; 10 µg/mL, 24 h, control = 100%, read-out: viability of HaCaT cells) of the same compound?
Answer: 80 ± 6.6%

Question: What about the “% of remaining peptide (unbound) in solution after magnetic separation” value [4] of the same compound?
Answer: ≤ 5%

Question: And the “decrease of bacterial viability” value (S. aureus A1)?
Answer: more than 95%

Question: For “Lipopolysaccharide from Escherichia coli O26:B6 [LPS]”, which “Young's modulus” value (A549 cells; indentation depth 1 µm) is on record?
Answer: 3.1 ± 0.08 kPa

Question: And the “Young's modulus” value (A549 cells; indentation depth 300 nm)?
Answer: 4.3 ± 0.07 kPa

Question: What about the IL-8 level (HaCaT cells [5]; 1 µg/mL LPS-stimulated HaCaT) of the same compound?
Answer: 504.9 ± 49.39 pg/mL

Question: For QRLFQVKGRR [PBP10, QRLFQVKGRR], which viability at 24 h, 10 µg/mL [3] is on record?
Answer: 83 to 101%

Question: What about the IC50 (HaCaT cells [6]) of the same compound?
Answer: > 50 µg/mL

Question: With “lipoteichoic acid from Staphylococcus aureus [LTA]” as the compound, how does the IL-8 level (HaCaT cells [5]; 1 µg/mL LTA-stimulated HaCaT) read?
Answer: 749.2 ± 55.81 pg/mL
